Experimental data as given in the NIST ThermoML archive (doi:10.1016/j.jct.2013.03.001).
± gives the expanded uncertainty stated by the source.

What was measured:
[1] = Crystal; DTA
[2] = Molar enthalpy of transition or fusion; details: Crystal; DSC
[3] = molar enthalpy of vaporization or sublimation; details: 298.15 K; Crystal; Static calorimetry

In the case of `O=c1cccc(Cl)[nH]1` [2(1H)-pyridinone, 6-chloro-], the Normal melting temperature [1] is reported as 128.46 ± 0.39 °C, the “Molar enthalpy of transition or fusion” value [2] is reported as 4.39 ± 0.112 kcal/mol and the molar enthalpy [3] is reported as 21.9 ± 0.311 kcal/mol.

For `Oc1cccnc1Cl` [2-chloro-3-hydroxypyridine], the Normal melting temperature [1] was 169.99 ± 0.41 °C, the “Molar enthalpy of transition or fusion” value [2] was 6.39 ± 0.148 kcal/mol and the molar enthalpy [3] was 21.3 ± 0.43 kcal/mol.

For `Oc1cncc(Cl)c1` [3-chloro-5-hydroxypyridine], the Normal melting temperature [1] was 159.76 ± 0.41 °C, the “Molar enthalpy of transition or fusion” value [2] was 5.16 ± 0.139 kcal/mol and the molar enthalpy [3] was 23.8 ± 0.478 kcal/mol.
